Measured values: patent publication US20170266284A1, “PERSONALIZED METHODS FOR TREATING DISEASE BY RADIOSENSITIZATION” (Shuttle Pharmaceuticals, LLC, priority 2014, published 2017)
Several values for one entry are separate records, joined by “and”; a condition that tells them apart may be missing. Equal values may be shown once.

Columns and labels:
[1] = tested on: clinical Stage 2 and 3 rectal cancers; details: cited from earlier work; for patients achieving tumor (T stage) downstaging: pre-operative chemoradiation, continuous infusion 5-FU or twice daily capecitabine
cells = details: compared to cells without the defective DNA; cited from earlier work
[2] = tested on: subcutaneous xenografts of human glioblastoma cell lines and human colorectal cancer cell lines; details: daily oral IPdR compared to continuous infusion IUdR; cited from earlier work
[3] = tested on: proliferating normal tissues (bone marrow and intestine); details: daily oral IPdR compared to continuous infusion IUdR; cited from earlier work
[4] = tested on: locally advanced rectal cancer; assay: Concomitant daily oral capecitabine and oral IPdR during radiation therapy (proposed); format: in vivo, human; details: oral IPdR with oral capecitabine during radiation therapy; expected ("may")
Method: This may, in turn, correlate with increased survival and improved quality of life for these patients. By establishing the MTD and documenting the plasma PK data for once daily oral administration of IPdR combined with fractionated radiation therapy (37.5 Gy @ 2.5 Gy fractions over 3 weeks), the daily (or twice daily) IPdR dose may be reduced by two dose levels, while using standard doses of capecitabine (750 mg/M^2) and radiation therapy (50.4-54 Gy @ 1.8 Gy fractions).

[5] = multiple daily oral IPdR dosing, pre-clinical; cited from earlier work
High Grade Sarcomas = assay: IUdR as radiosensitizer with RT in patients with high grade sarcomas, vs historical controls; format: in vivo, human

O=c1[nH]cc(F)c(=O)[nH]1 [5-FU, 5-fluorouracil]
patients achieving tumor (T stage) downstaging [1]: about 45%

O=c1[nH]c(=O)n([C@H]2C[C@H](O)[C@@H](CO)O2)cc1Br [BUdR, 5-bromo-2′-deoxyuridine]
cells more susceptible to the lethal effects of radiation therapy (cells): two to three fold

O=c1ncc(I)cn1[C@H]1C[C@H](O)[C@@H](CO)O1 [IPdR, 5-iodo-2-pyrimidinone-2′-deoxyribose]
increased % IUdR-DNA incorporation into tumor tissues [2]: 2-3 fold | decreased % IUdR-DNA incorporation into proliferating normal tissues (bone marrow and intestine / gut epithelium) [3]: 2-3 fold and 2 fold | pCR rate [4]: > 30% | acute and subacute normal tissue toxicities [5]: without significant dose-limiting acute and subacute normal tissue toxicities

O=c1[nH]c(=O)n([C@H]2C[C@H](O)[C@@H](CO)O2)cc1I [IUdR, 5-iodo-2′-deoxyuridine]
cells more susceptible to the lethal effects of radiation therapy (cells): two to three fold | Median Survival (Months) (High Grade Sarcomas; RT + IUdR + Surgery, High Grade Sarcomas (Resectable), RT + Surgery 25%): 45% | Median Survival (Months) (High Grade Sarcomas; RT + IUdR, High Grade Sarcomas (Un-Resectable), RT alone <10%): 60%

CCCCCOC(=O)Nc1nc(=O)n([C@@H]2O[C@H](C)[C@@H](O)[C@H]2O)cc1F [capecitabine]
pCR, local recurrence, and overall survival, comparison with infusional 5-FU ([1]; capecitabine administered twice daily): equivalent to infusional 5-FU | patients achieving tumor (T stage) downstaging [1]: about 45%
